SMILES strings stand for the structures.

The compound `Cn1c(S)nc(-c2ccccc2)c1-c1ccccc1` yielded a melting point of 179 to 182 °C.
With `CN(CCOc1ccc(NS(C)(=O)=O)cc1)CCc1ccc(NS(C)(=O)=O)cc1`, the melting point lay within 150 to 152 °C.
With `OCc1cnn2ccc3c(c12)CCO3` the figure was 152 to 154 °C; with `Cc1ccc(OC2CCN(C(=O)C(=O)Nc3ccc4c(c3)OCC(=O)N4)CC2)cc1`, 226 to 228 °C; with `CCCCCCC(C)(C)c1ccc([C@@H]2CC(=O)C[C@@H](C#N)C2)c(OCc2ccccc2)c1` (relative stereo), 79 °C.
The compound `O=C1N(c2cc(Cl)nc(Cl)c2)C(=O)[C@]2(Cc3ccc(OC(F)(F)F)cc3)C[C@@H](c3cc[nH]c3C(=O)C(F)(F)F)CN12` registered a melting point of 167 °C.
Next, `CCOC(=O)C(C)Oc1ccc(Oc2ccc3cc(Br)ccc3n2)cc1` (centres undefined): 85 °C.
For `Oc1ccc(-c2nn(CC3CCCCC3)c3c(C(F)(F)F)cccc23)c(O)c1`, the melting point was in the range of 117 to 118 °C.
For the compound `CC(C)C[C@H](NC(=O)OCc1ccccc1)C(=O)N[C@@H](Cc1ccccc1)C(=O)CSCc1ccccn1`, the melting point lay within 82 to 87 °C.
`Cc1ccc(-c2ccccc2C#N)cc1Br`: the melting point lay within 104 to 106 °C.
With `CC1(C)CCC(C)(C)c2cc3oc(-c4ccc(C(=O)O)cc4)nc3cc21` the figure was 290 °C; with `Cc1nc(CCc2ccccc2)c2c(c1O)COC2`, 248 °C.
Compound `CC(C)Oc1cc(Oc2ccc(C(F)(F)F)cn2)ccc1CCCOc1cc(CCC(=O)O)n(C)n1` registered a melting point of 128 to 130 °C.
As to `CCc1[nH]c(=O)n(-c2cc(C(=O)OC(C)C)c(Cl)cc2F)c(=O)c1C`, the melting point was in the range of 192 to 194 °C.
`Cc1nnc(-c2sc(N3CCN(Cc4ccc(F)cc4)C3=O)nc2C)[nH]1` yielded a melting point of 248 to 249 °C.
Next, `O=C(NCCCCO)c1c([N+](=O)[O-])ccc(N(CCBr)CCBr)c1[N+](=O)[O-]`: 114 to 117 °C; `C#CCSc1nc(=O)n(CC#C)cc1F`: 135 °C.
Next, `O=c1[nH]c2c(Cl)cc(Cl)cc2c(=O)n1CCCN1CC=C(c2ccc(Cl)cc2)CC1`: 197 to 199 °C; `COc1ccc(Br)c2c1C(=O)C(C=O)C2` (centres undefined): 76 to 78 °C.
With `CCOC(=O)c1ccc(NC(=O)C(C)CS)nc1` (centres undefined) the figure was 58 to 61 °C; with `CN1CCC(=C2c3cc(C#N)ccc3C=Cn3cccc32)CC1`, 156 to 159 °C; with `CON=C(C(=O)OC)c1ccccc1COc1ccc(C(C)=NOCc2ccccc2)cc1`, 104 to 106 °C.
The compound `O=C1Cc2cc(C(=O)c3ccccc3)ccc2N1` came in with a melting point of 204 to 205 °C.
With `N#CC1CN1C(=O)NC(=O)c1cccs1` (centres undefined), the melting point lay in the range of 156 to 160 °C.
Next, `COc1ccc(-c2cc(F)cc3c2NC(CN)CO3)c(Cl)c1` (centres undefined): 84 °C; `Cn1cc(C(=O)c2ccc(Cl)cc2)cc1C(=O)c1ccc(Cl)nc1`: 150 to 152 °C; `O=C(Cc1ccc(F)cc1)c1ccc(OC(F)F)cc1`: 50 to 56 °C.
With `Cc1c(Br)c(=O)n(C2CCCC2)c2nc(Nc3ccc(N4CCNCC4)nc3)ncc12` the figure was 290 °C; with `CCCCCCCCCCCCCCCCC(NC(C)=O)(C(=O)OCC)C(=O)OCC`, 65 to 67 °C.
Next, `Cc1sc(S(C)(=O)=O)nc1-c1ccccc1`: 114 to 115 °C; `Cn1c(CCN2CCN(c3ccccc3)CC2)nc2c3ccccc3ccc21`: 153 to 155 °C.
In the case of `Oc1c(-c2ccc(F)cc2)nn2ccccc12`, the melting point lay in the range of 178 to 179 °C.
For the compound `N#Cc1c(N)nc2ccc(N3CCN(Cc4ccccc4)CC3)cc2c1Cl`, the melting point is 206 °C.
Next, `CCCCCCCCCCCCCCCCS(=O)(=O)NCCc1ccc(OCC(=O)O)cc1`: 138 °C; `C1=C(c2ccc3c(c2)OCO3)CCN(Cc2n[nH]c3ccccc23)C1`: 139 to 141 °C.
In turn, `COc1ccc(-n2cc(C3(O)CN4CCC3CC4)nn2)cc1` (centres undefined) returned a melting point of 174 °C.
With `CCOC(=O)C(=O)Nc1ccc2[nH]c(=O)oc2c1` the figure was 180 to 186 °C; with `Brc1ccc2cc(N(c3ccccc3)c3ccccc3)ccc2c1`, 136 to 137 °C.
With `COC(=O)c1ccc(-c2nc(-c3cccc(OC(F)(F)F)c3)cs2)cc1` the figure was 132 to 134 °C.
Next, `O=CC(=C(Cl)c1ccc2c(c1)OCO2)c1ccc2c(c1)OCO2`: 167 to 168 °C; `CCOCCc1c(N=[N+]=[N-])nc(NC(=O)NC)nc1-c1ccccc1`: 128 to 130 °C; `N#CSc1cc2sc(NC(=O)C3CC3)nc2cc1F`: 256 °C.
As to `COc1cc(C(=O)N2Cc3ccc(C(=O)NCc4ccc(Cl)cc4)n3Cc3ccccc32)ccc1-c1ccccc1C`, the melting point is 218 to 219 °C.
With `CC(=O)Nc1ccc(CN(C)C2CCOCC2)cc1` the figure was 105 to 106 °C.
Compound `COC(=O)c1cccc(NC(=O)c2ccc(OC)c([N+](=O)[O-])c2)c1` gave a melting point of 233 to 235 °C.
With `CCOC(=O)Cc1ccc2c(c1)NC(NC(C)C)=NS2(=O)=O` the figure was 182 to 184 °C.
With `CCOC(=O)c1cccc2c(=O)cc(-c3ccc(OCc4ccc5ccccc5c4)cc3)oc12` the figure was 245 to 249 °C; with `COCCOC(=O)C1=C(C)NC(C)=C(C(=O)OC(C)C)C1c1ccsc1Cl` (centres undefined), 123 to 124 °C; with `CCNC(=O)c1c(Cl)cccc1N(C)C(C)(C)C`, 106 to 108 °C.
With `CC(C)(C)NS(=O)(=O)c1ccccc1-c1ccc(CBr)c(F)c1` the figure was 138 to 140 °C; with `CCCCCCCCCCCc1nnc(CO)n1-c1ccccc1C(=O)c1ccccc1`, 111 to 112 °C; with `CCCCCCc1cc2c(cc1OCCCC(=O)O)C(=O)CC2`, 88 °C.
As for `CCN1CCCC(NC(=O)Cn2c(-c3ccc(Br)cc3)nc3cccnc32)C1` (centres undefined), the melting point was 190 to 192 °C.
Next, `C#CCOc1ccc([N+](=O)[O-])cc1`: 108 to 110 °C; `Cc1ccc(C2COc3c(C)c(C)c(NCc4ccccc4)c(C)c32)nc1` (centres undefined): 104 to 105 °C; `Cn1ncc(N2CCCC2)c(-c2ccccc2C=O)c1=O`: 140 to 141 °C.
Next, `CC(C)[Si](C(C)C)(C(C)C)n1cc(SC(=O)c2ccccc2)c(C(=O)c2ccccc2)c1`: 120 to 122 °C; `O=C(O)C12CC3(F)CC(F)(CC(F)(C3)C1)C2`: 198 to 199 °C.
`CC1(CC(=O)O)OCCc2c1[nH]c1ccc(O)cc21` (centres undefined) came in with a melting point of 170 to 171 °C.
For the compound `CCOC(=O)C(=O)CC(=O)c1c(-c2ccccc2)cc2ccccn12`, the melting point lay in the range of 100 to 102 °C.
With `Clc1ccccc1C1=NOC(c2ccccc2Cl)N1` (centres undefined) the figure was 75 to 78 °C.
Next, `CCc1c(C2=NC(C)(C)CO2)ccc(C2=NC(C)(C)CO2)c1CC`: 49 to 50 °C; `COc1ccc2sc(C3=C(C(C)(C)C)C(C)(C)CO3)cc2c1`: 58 to 59 °C; `CCC(=O)C(CCCCCl)NC(=O)c1ccc(C)cc1` (centres undefined): 85 to 86 °C.
Next, `CCCCc1ncc(CC(Cc2ccccc2)C(=O)O)n1Cc1ccc(C(=O)O)cc1` (centres undefined): 120 to 124 °C; `CCc1nc(-c2ccc(OCCn3ccnc3)cc2)no1`: 81 to 82 °C; `COc1ccc(CCNc2ncnc3occ(C)c23)cc1`: 184 °C.
`Cc1ccccc1C(CCC(=O)O)Oc1cc(OCc2ccsc2)ccc1-c1nc(C(=O)O)co1` (racemic) came in with a melting point of 178 to 179 °C.
With `COc1ccc(Cn2c(=O)n([C@H]3CC[C@H](O)CC3)c3ccc(C(F)(F)F)cc32)cc1OC` the figure was 108 to 110 °C.
In the case of `Nc1cc(OCCOCP(=O)(O)O)nc(N)n1`, the melting point was 279 °C.
With `CCOC(=O)N=P(c1ccccc1)(c1ccccc1)c1ccccc1CN(C)C` the figure was 103 to 105 °C.
With `O=C(N[C@H]1CCN(CCc2ccc(F)cc2)C1)C(c1ccccc1F)c1ccccc1F` the figure was 107 to 108 °C; with `C#CCN(Cc1cc2c(=O)n(C)c(COS(C)(=O)=O)nc2cc1Cl)c1ccc(C(=O)OC(C)(C)C)cc1`, 204 to 205 °C.
The compound `O=C(C1CO1)C(Cl)(Cl)Cl` (centres undefined) gave a melting point of 92 to 95 °C.
Next, `CCCCCCOc1c(OC)cc(C(=O)NN=C2CCCCC2=Cc2ccccc2)cc1OC`: 158 to 160 °C; `COc1ccccc1Nc1ncccc1[N+](=O)[O-]`: 151 to 153 °C.
Next, `CC1(C)CCC(C)(C)c2cc(CCOc3ccc(C(=O)O)c(O)c3)ccc21`: 210 to 212 °C; `N#Cc1ccccc1-c1ccc(CCl)cc1`: 125 to 126 °C.
Next, `CN1CCC(c2ccc(OC(C)(C)CO)cc2)c2ccccc21` (centres undefined): 92 to 94 °C; `O=C(O)c1cn(C2COC2)c2cc(F)c(F)c(O)c2c1=O`: 273 to 276 °C.
`CCOC(=O)C(C(=O)OCC)c1n[nH]c(C)c1[N+](=O)[O-]`: the melting point is 100 to 102 °C.
Next, `Cc1ccc(S(=O)(=O)N(C(N)=O)c2cccc(Br)n2)cc1`: over 310 °C.
Next, `N=C1CN(c2ccccc2)C(=N)O1`: 117 to 119 °C; `CCC[C@H]1C(=O)N[C@H]2CCN[C@@H]21` (relative stereo): 97 to 100 °C; `CCOC(=O)c1c(N2CCN(C=O)CC2)c2cc(C)ccc2n(Cc2ccccc2)c1=O`: 196 °C.
With `CCOc1ccc(C(=O)Nc2c(Cl)cncc2Cl)c2c3cc(Cl)ccc3n(Cc3ccccc3)c12` the figure was 221 to 223 °C.
`CCCCCCCc1ccc(C(=O)CCCCC(=O)O)cc1` yielded a melting point of 80 to 81 °C.
Regarding `CC(C)[Si](C#Cc1ccc2c(c1)c1cccc3c1c2c1cccc2c4cc(C#C[Si](C(C)C)(C(C)C)C(C)C)ccc4c3c21)(C(C)C)C(C)C`, the melting point is over 300 °C.
With `COC(=O)C1(OC)CC(O)C(NC(C)=O)C(C(O)C(O)CO)O1` (centres undefined) the figure was 161 to 167 °C.

These data come from a melting point compilation (Tetko et al.; mined from patent text by program, amines drawn as free bases though some values may be those of a salt).
